From US10441663B2, “Methods for treating cancer” (Bicycle Therapeutics Limited, priority 2016, dated 2019)
*1 amine or outer side, *2 acyl side, *3 side chain or, on linkers, in order; H or OH if unused. Where a SMILES comes first, the peptide text is derived from it. Bridges are numbered along the chain shown (N, C = ends). [ ]: non-standard residue; d: D form. The star is where a group is joined. X1 = COc1cc2cc(c1Cl)N(C)C(=O)C[C@H](OC(=O)[C@H](C)N(C)C(=O)CCSSC(C)CCC(=O)*)[C@]1(C)O[C@H]1[C@H](C)[C@@H]1C[C@@](O)(NC(=O)O1)[C@H](OC)/C=C/C=C(\C)C2; 1Nal = N[C@@H](Cc1cccc2ccccc12)C(=O)O; TBMB = c1c(C[*:1])cc(C[*:3])cc1C[*:2]; Tle = CC(C)(C)[C@H](N)C(=O)O; βAla = NCCC(=O)O; Sar = CNCC(=O)O

Tests used:
[1] = test system: NCI-H292 xenograft; test: In vivo efficacy of BT1718 in NCI-H292 xenograft; set-up: species or system Mus Musculus; key to Best response at 10 mg/kg: CR complete response; PR partial response
Experimental: The objective of this study was to evaluate the in vivo anti-tumor efficacy of BT1718in treatment of HT1080, NCI-H292, NCI-H1975, MDA-MB-231, HCC1806, RPMI2650, HCT-15, HT-29 and SNU-16 xenograft in BALB/c nude mice.
The HT1080, NCI-H292, NCI-H1975, MDA-MB-231, HCC1806, RPMI2650, HCT-15, HT-29 and SNU-16 tumor cells were maintained in vitro as a monolayer culture in medium supplemented with 10% heat inactivated fetal bovine serum at 37° C. in an […]. The tumor cells will be routinely subcultured twice weekly by trypsin-EDTA treatment. The cells growing in an exponential growth phase will be harvested and counted for tumor inoculation.
Mouse was inoculated subcutaneously at the right flank with tumor cells for tumor development. The animals were randomized and treatment was started when the average tumor reaches certain volume for the efficacy study, the inoculating cell amounts and starting tumor size were shown as below in Table 9. The test article administration and the animal numbers in each group were shown in the experimental design in Table 10.
All the procedures related to animal handling, care and the treatment in the study were performed according to the guidelines of the Association for Assessment and Accreditation of Laboratory Animal Care (AAALAC). At the time of routine monitoring, the animals were daily checked for any effects of tumor growth and treatments on normal behavior such as mobility, food and water consumption (by looking only), body weight gain/loss (body weights were measured every day), eye/hair matting and any other abnormal effect as stated in the protocol. Death and observed clinical signs were recorded on the basis of the numbers of animals within each subset.
The major endpoint was to see if the tumor growth could be delayed or mice could be cured. Tumor size was measured three times weekly in two dimensions using a caliper, and the volume was expressed in mm^3 using the formula: V=0.5 a×b^2 where a and b are the long and short diameters of the tumor, respectively. The tumor size was then used for calculations of T/C value. The T/C value (in percent) is an indication of antitumor effectiveness; T and C are the mean volumes of the treated and control groups, respectively, on a given day.
TGI was calculated for each group using the formula: TGI (%)=[1−(Ti−T0)/(Vi−V0)]×100; Ti is the average tumor volume of a treatment group on a given day, T0 is the average tumor volume of the treatment group on the day of treatment start, Vi is the average tumor volume of the vehicle control group on the same day with Ti, and V0 is the average tumor volume of the vehicle group on the day of treatment start.
Summary statistics, including mean and the standard error of the mean (SEM), are provided for the tumor volume of each group at each time point.
Statistical analysis of difference in tumor volume among the groups was conducted on the data obtained at the best therapeutic time point after the final dose.
A one-way ANOVA was performed to compare tumor volume among groups, and when a significant F-statistics (a ratio of treatment variance to the error variance) was obtained, comparisons between groups were carried out with Games-Howell test. All data were analyzed using Prism. P<0.05 was considered to be statistically significant.

[2] = test system: HT1080 cell line; test: In vitro cytotoxicity, ATP endpoint assay after 72 hours incubation; type: cell-based; settings: HT-1080 cells
Experimental: To evaluate the in vitro cytotoxicity of BT1718 and BT1721 in an HT1080 cell line using an ATP endpoint assay after 72 hours incubation.
Cells were seeded in 96 well plates (75 μl/well, HT1080=7500−15000 cell/well) and incubated overnight at 37° C.+5% CO2.
The day after cell seeding, serial dilutions (1:5) of BT1718 and BT1721 were prepared in DMSO and diluted 1:71 in cell culture media to give 4× final concentrations. Twenty five μl/well was added to the cells (2 μM or 5 μM top final concentration of BT1718 and 2 μM or 5 μM top final concentration of BT1721, <0.6% final DMSO).
Cells were 30-50% confluent upon dosing. Control wells containing 5 μM final concentration of staurosporine (positive control), lysis buffer (1% NP40, 20 mM Tris pH8, 137 mM NaCl, 10% glycerol, 2 mM EDTA, 1 mM Na Orthovanadate, 10 μg/ml leupeptin, 10 μg/ml aprotinin) positive control or media (negative control), were also included. Plates were sealed with gas permeable seals and incubated at 37° C.+5% CO2 for 72 hours. No wash steps were performed.
After a total of 72 hours after dosing, ATPLite reagent (Perkin Elmer) was equilibrated to room temperate and reconstituted in the supplied buffer as per the manufacturer's instructions. One hundred μl 1× detection reagent was added per well. Plates were sealed, protected from light and shaken gently for 20 minutes to ensure complete cell lysis before luminescence was read using a BMG Pherastar FS plate reader. […] Data was analysed using GraphPad Prism. Non-linear regression fit was used to calculate a relative IC50 for each toxic agent: Y=Bottom+(Top−Bottom)/(1+10^((Log Ic50−X)*HillSlope)) where the IC50 is defined as 50% of the total cell kill achieved at the top concentration of toxin.

## COc1cc2cc(c1Cl)N(C)C(=O)C[C@H](OC(=O)[C@H](C)N(C)C(=O)CCSSC(C)CCC(=O)NCCC(=O)N(C)CC(=O)N(C)CC(=O)N(C)CC(=O)N(C)CC(=O)N(C)CC(=O)N(C)CC(=O)N(C)CC(=O)N(C)CC(=O)N(C)CC(=O)N(C)CC(=O)N[C@@H](C)C(=O)N[C@H]1CSCc3cc4cc(c3)CSC[C@H](NC(=O)[C@@H](C)NC(=O)[C@H](Cc3cccc5ccccc35)NC(=O)[C@H](CCC(=O)O)NC(=O)[C@H](CC(N)=O)NC(=O)[C@@H](C)NC1=O)C(=O)N[C@@H](CCC(=O)O)C(=O)N[C@@H](CC(=O)O)C(=O)N[C@@H](Cc1ccccc1)C(=O)N[C@@H](Cc1ccc(O)cc1)C(=O)N[C@@H](CC(=O)O)C(=O)N[C@@H](C(C)(C)C)C(=O)N[C@H](C(N)=O)CSC4)[C@]1(C)O[C@H]1[C@H](C)[C@@H]1C[C@@](O)(NC(=O)O1)[C@H](OC)/C=C/C=C(\C)C2 (some centres unmarked) [BT1718] ({X1-βAla}-[Sar][Sar][Sar][Sar][Sar][Sar][Sar][Sar][Sar][Sar]AC[dA]NE[1Nal][dA]CEDFYD[Tle]C-NH2; linker 12-18-25 via TBMB (inferred))
[1]; 10 mg/kg biw re-treatment
  tumors that failed to respond on resumed treatment: 1/3
  tumors with lack of clear tumor growth on re-treatment: 2/3
[1]; 1 mpk biw, day 0
  Body Weight: 22.8 ± 0.7 g
  Tumor Volume: 153 ± 9 mm^3
[1]; 1 mpk biw, day 2
  Body Weight: 22.9 ± 0.3 g
  Tumor Volume: 215 ± 25 mm^3
[1]; 1 mpk biw, day 4
  Body Weight: 23.4 ± 0.5 g
  Tumor Volume: 326 ± 49 mm^3
[1]; 1 mpk biw, day 7
  Body Weight: 23.6 ± 0.6 g
  Tumor Volume: 514 ± 54 mm^3
[1]; 1 mpk biw, day 9
  Body Weight: 23.7 ± 0.7 g
  Tumor Volume: 669 ± 53 mm^3
[1]; 1 mpk biw, day 11
  Body Weight: 23.4 ± 0.7 g
  Tumor Volume: 978 ± 97 mm^3
[1]; 1 mpk biw, day 14
  Body Weight: 23.5 ± 1.0 g
  TGI (%): 20.7%
  Tumor Volume: 1174 ± 98 mm^3
  Tumor Volume(mm^3): 1174 ± 98 mm^3
[1]; 3 mpk biw, day 0
  Body Weight: 22.7 ± 0.5 g
  Tumor Volume: 151 ± 15 mm^3
[1]; 3 mpk biw, day 2
  Body Weight: 23.5 ± 0.4 g
  Tumor Volume: 226 ± 22 mm^3
[1]; 3 mpk biw, day 4
  Body Weight: 23.2 ± 0.7 g
  Tumor Volume: 334 ± 65 mm^3
[1]; 3 mpk biw, day 7
  Body Weight: 23.4 ± 0.8 g
  Tumor Volume: 443 ± 70 mm^3
[1]; 3 mpk biw, day 9
  Body Weight: 22.9 ± 0.9 g
  Tumor Volume: 591 ± 90 mm^3
[1]; 3 mpk biw, day 11
  Body Weight: 22.6 ± 1.0 g
  Tumor Volume: 781 ± 178 mm^3
[1]; 3 mpk biw, day 14
  Body Weight: 22.0 ± 1.2 g
  TGI (%): 40.3%
  Tumor Volume: 920 ± 258 mm^3
  Tumor Volume(mm^3): 920 ± 258 mm^3
[1]; 10 mpk biw, day 0
  Body Weight: 22.8 ± 0.4 g
  Tumor Volume: 153 ± 6 mm^3
[1]; 10 mpk biw, day 2
  Body Weight: 22.1 ± 0.3 g
  Tumor Volume: 152 ± 8 mm^3
[1]; 10 mpk biw, day 4
  Body Weight: 21.7 ± 0.3 g
  Tumor Volume: 151 ± 32 mm^3
[1]; 10 mpk biw, day 7
  Body Weight: 22.4 ± 0.3 g
  Tumor Volume: 159 ± 49 mm^3
[1]; 10 mpk biw, day 9
  Body Weight: 21.8 ± 0.2 g
  Tumor Volume: 158 ± 49 mm^3
[1]; 10 mpk biw, day 11
  Body Weight: 21.8 ± 0.2 g
  Tumor Volume: 143 ± 52 mm^3
[1]; 10 mpk biw, day 14
  Body Weight: 22.5 ± 0.4 g
  TGI (%): 101.6%
  Tumor Volume: 133 ± 44 mm^3
  Tumor Volume(mm^3): 133 ± 44 mm^3
[1]; NCI-H292, 10 mg/kg
  Best response at 10 mg/kg: CR
[1]; NCI-H292, dose leading to tumor-stasis
  Minimally Effective Dose IV BIW: <10 mg/kg
[1]; after 10 mg/kg biw
  dosing suspension until re-growth to 150 mm3: 2-3 weeks
[1]; after 4 weeks 10 mg/kg biw
  tumor volume after regression: below 50 mm3
[2]; ATP endpoint
  IC50: 1 nM
[2]
  relative cytotoxic activity versus BT1721: approximately ten-fold more active
